Test results: ChEMBL document CHEMBL1201862, “PubChem BioAssay data set” (2004)
Calls of active or inactive are those of the source.

Assays:
[1] = target: T1, Lysosomal acid glucosylceramidase (Homo sapiens, UniProt P04062); assay: Dose response cell-based high throughput screening assay to identify enhancers of beta-glucosidase activity. [Related pubchem assays: 784 ]; format: functional
T1 sequence (P04062 whole entry): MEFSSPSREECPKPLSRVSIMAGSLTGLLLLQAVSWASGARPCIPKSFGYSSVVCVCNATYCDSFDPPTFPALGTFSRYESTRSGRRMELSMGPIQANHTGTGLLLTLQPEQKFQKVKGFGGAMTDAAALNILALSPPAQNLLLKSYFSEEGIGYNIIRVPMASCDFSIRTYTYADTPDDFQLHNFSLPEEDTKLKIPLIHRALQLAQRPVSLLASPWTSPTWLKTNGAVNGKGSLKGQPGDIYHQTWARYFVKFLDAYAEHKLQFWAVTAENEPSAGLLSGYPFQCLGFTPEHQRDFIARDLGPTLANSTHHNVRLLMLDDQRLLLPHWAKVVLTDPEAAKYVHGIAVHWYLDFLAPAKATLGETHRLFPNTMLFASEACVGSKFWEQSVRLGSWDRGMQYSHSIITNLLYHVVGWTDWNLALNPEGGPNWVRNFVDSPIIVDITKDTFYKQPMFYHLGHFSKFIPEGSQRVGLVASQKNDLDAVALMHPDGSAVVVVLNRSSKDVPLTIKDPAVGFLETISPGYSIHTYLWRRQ

Prothrombin = Prothrombin (Homo sapiens, UniProt P00734); assay: Thrombin 1536 HTS Dose Response Confirmation. [Related pubchem assays: 1046 (Thrombin 1536 HTS; hits were confirmed in this assay)]; format: functional
Estrogen receptor beta [2] = target: T2, Estrogen receptor beta (Homo sapiens, UniProt Q92731);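 further: recombinant ER-beta bound to coactivator SRC1 peptide in presence of estradiol agonist; inhibitors block coactivator peptide binding and lower the FRET signal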
Estrogen receptor beta [3] = target: T2, Estrogen receptor beta; assay: blockers of SRC-3 recruitment to ERβ – biochemical, ELISA, streptavidin-HRP readout, orthogonal assay, confirmation (AID 1060)
[4] = target: T3, Ubiquitin carboxyl-terminal hydrolase BAP1 (Homo sapiens, UniProt Q92560); assay: inhibition of BAP1 ubiquitin hydrolase activity – biochemical, dose response (AID 714); format: functional
T3 sequence (Q92560 whole entry): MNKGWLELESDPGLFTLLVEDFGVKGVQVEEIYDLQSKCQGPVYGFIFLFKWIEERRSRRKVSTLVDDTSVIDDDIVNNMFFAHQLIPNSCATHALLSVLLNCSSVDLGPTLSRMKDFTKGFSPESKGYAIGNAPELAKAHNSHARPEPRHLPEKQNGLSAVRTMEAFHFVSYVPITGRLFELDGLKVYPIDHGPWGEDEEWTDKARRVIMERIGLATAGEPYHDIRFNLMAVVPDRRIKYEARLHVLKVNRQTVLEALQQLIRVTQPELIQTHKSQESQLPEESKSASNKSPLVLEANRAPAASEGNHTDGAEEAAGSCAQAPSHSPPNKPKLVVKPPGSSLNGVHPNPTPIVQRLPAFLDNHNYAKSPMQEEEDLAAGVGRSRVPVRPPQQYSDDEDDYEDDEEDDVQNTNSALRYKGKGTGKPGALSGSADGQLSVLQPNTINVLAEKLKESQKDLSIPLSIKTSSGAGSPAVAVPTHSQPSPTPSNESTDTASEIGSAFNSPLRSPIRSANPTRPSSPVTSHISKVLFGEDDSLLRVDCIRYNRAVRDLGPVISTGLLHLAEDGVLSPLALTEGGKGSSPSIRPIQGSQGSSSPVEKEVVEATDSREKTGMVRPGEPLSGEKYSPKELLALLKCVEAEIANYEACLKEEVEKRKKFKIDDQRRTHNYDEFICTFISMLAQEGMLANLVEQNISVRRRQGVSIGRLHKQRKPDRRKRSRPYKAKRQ

[5] = target: G-protein coupled receptor 55 (Homo sapiens, UniProt Q9Y2T6); assay: selective activators of receptor GPR55 – imaging, U2OS cells, beta-arrestin-GFP redistribution, primary screen (AID 1961); format: functional
[6] = Counterscreen for IDE inhibitors: Luminescence-based cell-based high throughput dose response assay to identify compounds that are cytotoxic to HEK cells. [Related pubchem assays: 434962 (Primary screen (IDE inhibitors in singlicate)), 449730 (Counterscreen (Cytotoxicity in triplicate)), 435028 (Confirmation (IDE inhibitors in triplicate)) …; format: functional; settings: HEK293
Insulin-degrading enzyme = target: T4, Insulin-degrading enzyme (Homo sapiens, UniProt P14735); assay: Dose Response: Fluorescence polarization-based cell-based high throughput dose response assay for inhibitors of insulin-degrading enzyme (IDE). [Related pubchem assays: 434962 (Primary screen (IDE inhibitors in singlicate)), 449730 (Counterscreen (Cytotoxicity in triplicate)), 435028 (Confirmation (IDE inhibitors in triplicate)), 434984 (Summary …; format: functional
T4 sequence (P14735 whole entry): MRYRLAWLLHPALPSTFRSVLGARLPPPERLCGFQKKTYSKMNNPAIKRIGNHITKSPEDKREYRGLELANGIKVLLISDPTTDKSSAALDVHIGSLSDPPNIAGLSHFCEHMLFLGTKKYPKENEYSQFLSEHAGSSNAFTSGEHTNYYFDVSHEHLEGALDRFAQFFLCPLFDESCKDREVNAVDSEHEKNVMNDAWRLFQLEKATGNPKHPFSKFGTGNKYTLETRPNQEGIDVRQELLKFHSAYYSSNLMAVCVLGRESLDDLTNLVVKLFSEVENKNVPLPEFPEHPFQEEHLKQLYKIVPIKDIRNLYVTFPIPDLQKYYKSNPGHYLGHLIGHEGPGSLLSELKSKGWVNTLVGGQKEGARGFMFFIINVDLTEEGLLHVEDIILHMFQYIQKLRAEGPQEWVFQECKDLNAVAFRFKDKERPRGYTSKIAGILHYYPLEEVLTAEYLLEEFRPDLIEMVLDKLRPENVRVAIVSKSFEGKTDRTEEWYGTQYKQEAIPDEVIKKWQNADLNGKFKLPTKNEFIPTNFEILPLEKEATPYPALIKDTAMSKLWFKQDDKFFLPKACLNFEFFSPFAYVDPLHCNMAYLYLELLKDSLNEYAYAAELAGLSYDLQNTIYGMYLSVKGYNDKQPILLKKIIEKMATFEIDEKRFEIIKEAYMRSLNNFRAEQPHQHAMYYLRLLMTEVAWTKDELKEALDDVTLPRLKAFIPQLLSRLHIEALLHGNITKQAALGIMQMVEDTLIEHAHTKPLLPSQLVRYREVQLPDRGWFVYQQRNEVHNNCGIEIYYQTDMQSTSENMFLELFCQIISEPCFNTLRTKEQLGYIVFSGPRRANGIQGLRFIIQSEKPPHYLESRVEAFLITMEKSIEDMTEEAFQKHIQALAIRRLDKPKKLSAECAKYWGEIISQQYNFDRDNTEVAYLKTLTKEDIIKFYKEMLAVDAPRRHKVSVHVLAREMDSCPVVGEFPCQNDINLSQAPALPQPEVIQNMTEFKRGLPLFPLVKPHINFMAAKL

Mucolipin-3 = target: T5, Mucolipin-3 (Homo sapiens, UniProt Q8TDD5); assay: Dose response cell-based high-throughput screening assay for agonists of the transient receptor potential channel ML3 (TRPML3). [Related pubchem assays: 1526, 1424, 1448 ]; format: functional
T5 sequence (Q8TDD5 whole entry): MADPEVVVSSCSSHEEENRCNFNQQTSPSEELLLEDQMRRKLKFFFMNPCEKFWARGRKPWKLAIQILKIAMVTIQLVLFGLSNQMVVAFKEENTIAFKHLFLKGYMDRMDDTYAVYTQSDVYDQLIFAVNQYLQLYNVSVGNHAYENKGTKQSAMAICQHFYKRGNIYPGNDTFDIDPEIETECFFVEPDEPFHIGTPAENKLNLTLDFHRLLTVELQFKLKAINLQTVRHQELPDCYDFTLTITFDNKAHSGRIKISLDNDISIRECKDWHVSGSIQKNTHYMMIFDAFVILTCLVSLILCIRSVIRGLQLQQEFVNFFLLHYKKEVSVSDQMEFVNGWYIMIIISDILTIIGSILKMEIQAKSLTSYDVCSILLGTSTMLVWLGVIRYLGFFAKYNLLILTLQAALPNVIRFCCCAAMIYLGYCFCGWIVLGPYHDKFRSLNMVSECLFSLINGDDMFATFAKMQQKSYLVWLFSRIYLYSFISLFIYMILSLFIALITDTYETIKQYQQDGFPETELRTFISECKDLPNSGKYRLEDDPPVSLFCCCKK

Ion channel NompC = Ion channel NompC (Danio rerio, UniProt Q7T1G6); assay: Fluorescence counterscreen assay for TRPML3 agonists: dose response cell-based high-throughput screening assay to identify agonists of the transient receptor potential channel N1 (TRPN1). [Related pubchem assays: 1526, 1424, 1448 ]; format: functional
[7] = A cytotoxicity screen of small molecule inhibitors of the PhoP region in Salmonella typhi identified in the primary screen. [Related pubchem assays: 1850, 1864, 1985 ]; format: functional
INS1 = assay: INS-1E survival protection against cytokine death – cell-based, luminescence, retest, dose response (AID 449756); format: functional; settings: Rattus norvegicus;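 further: cell death triggered by IL-1 beta plus TNF-alpha plus IFN-gamma mixture; protective hits raise ATP signal compared with cytokine alone wells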
Large T antigen = Large T antigen (Simian virus 40, UniProt P03070); format: functional, Betapolyomavirus macacae;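 further: Confirmatory-stage PubChem screen for compounds that inhibit SV40 T antigen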
[8] = target: Induced myeloid leukemia cell differentiation protein Mcl-1 (Homo sapiens, UniProt Q07820); format: functional
[9] = target: Eukaryotic translation initiation factor 4E (Mus musculus, UniProt P63073); assay: blockers of eIF4G binding by eIF4E – biochemical, TR-FRET, dose response (AID 855); format: functional;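 further: potency for disrupting eIF4E binding to eIF4GI seen as loss of FRET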
[10] = system: Streptococcus sp. 'group A'; assay: Streptococcus pyogenes SK(-)GAS viability under kanamycin – luminescence, BacTiterGlo, confirmation, counter-screen for streptokinase expression inhibitor project, dose response (AID 1900); format: functional, organism-based
Streptokinase A = target: T6, Streptokinase A (Streptococcus pyogenes serotype M1, UniProt P10520); assay: viability-normalized secreted streptokinase activity reduction – plasminogen activation absorbance, OD405, dose response (AID 1914); format: functional, Streptococcus pyogenes M1 GAS;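 further: secreted streptokinase activity via plasminogen activation per viability signal from cell pellet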
T6 sequence (P10520 whole entry): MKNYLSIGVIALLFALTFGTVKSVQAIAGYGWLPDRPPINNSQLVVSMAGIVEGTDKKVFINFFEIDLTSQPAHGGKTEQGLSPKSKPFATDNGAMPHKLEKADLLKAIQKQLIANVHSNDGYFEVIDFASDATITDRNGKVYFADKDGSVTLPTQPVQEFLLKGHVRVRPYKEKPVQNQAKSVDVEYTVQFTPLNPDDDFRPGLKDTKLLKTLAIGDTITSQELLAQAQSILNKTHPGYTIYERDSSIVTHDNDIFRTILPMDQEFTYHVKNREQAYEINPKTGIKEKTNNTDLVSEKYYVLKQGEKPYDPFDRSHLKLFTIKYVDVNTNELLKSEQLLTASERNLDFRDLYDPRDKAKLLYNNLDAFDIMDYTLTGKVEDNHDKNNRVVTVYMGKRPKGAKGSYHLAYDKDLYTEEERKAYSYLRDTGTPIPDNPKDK

Streptococcus = assay: GAS UMAA2166 growth inhibition – luminescence, BacTiterGlo, counter-screen for streptokinase expression inhibitor project, dose response (AID 1915); format: functional, organism-based;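 further: potency for reduction of bacterial viability or growth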
[11] = target: T7, Carboxy-terminal domain RNA polymerase II polypeptide A small phosphatase 1 (Homo sapiens, UniProt Q9GZU7); assay: CTDSP1 inhibitors, concentration-response, biochemical, absorbance readout, ultra-high-throughput screen actives (AID 540297); format: functional
T7 sequence (Q9GZU7 whole entry): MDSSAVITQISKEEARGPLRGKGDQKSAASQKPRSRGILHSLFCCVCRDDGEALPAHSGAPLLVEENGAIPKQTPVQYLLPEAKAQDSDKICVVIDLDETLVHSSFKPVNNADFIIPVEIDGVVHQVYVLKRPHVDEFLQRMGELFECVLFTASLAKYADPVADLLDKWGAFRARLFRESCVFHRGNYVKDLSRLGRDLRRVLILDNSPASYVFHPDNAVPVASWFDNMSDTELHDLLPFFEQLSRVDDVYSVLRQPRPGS

T2 sequence (Q92731 whole entry): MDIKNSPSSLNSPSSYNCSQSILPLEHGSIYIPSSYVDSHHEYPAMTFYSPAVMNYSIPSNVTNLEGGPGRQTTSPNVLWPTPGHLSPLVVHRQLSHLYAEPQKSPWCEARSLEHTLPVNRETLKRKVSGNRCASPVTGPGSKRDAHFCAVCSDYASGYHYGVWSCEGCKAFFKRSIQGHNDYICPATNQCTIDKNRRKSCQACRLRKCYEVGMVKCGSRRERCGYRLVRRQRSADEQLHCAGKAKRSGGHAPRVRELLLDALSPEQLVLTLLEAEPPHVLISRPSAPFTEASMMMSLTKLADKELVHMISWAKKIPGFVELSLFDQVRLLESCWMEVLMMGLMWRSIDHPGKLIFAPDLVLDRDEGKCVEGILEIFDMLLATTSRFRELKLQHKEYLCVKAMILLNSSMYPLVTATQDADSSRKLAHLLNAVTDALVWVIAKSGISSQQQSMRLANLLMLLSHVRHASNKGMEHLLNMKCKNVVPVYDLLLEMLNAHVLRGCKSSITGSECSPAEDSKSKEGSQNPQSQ
Sequence of Induced myeloid leukemia cell differentiation protein Mcl-1 (Q07820 whole entry): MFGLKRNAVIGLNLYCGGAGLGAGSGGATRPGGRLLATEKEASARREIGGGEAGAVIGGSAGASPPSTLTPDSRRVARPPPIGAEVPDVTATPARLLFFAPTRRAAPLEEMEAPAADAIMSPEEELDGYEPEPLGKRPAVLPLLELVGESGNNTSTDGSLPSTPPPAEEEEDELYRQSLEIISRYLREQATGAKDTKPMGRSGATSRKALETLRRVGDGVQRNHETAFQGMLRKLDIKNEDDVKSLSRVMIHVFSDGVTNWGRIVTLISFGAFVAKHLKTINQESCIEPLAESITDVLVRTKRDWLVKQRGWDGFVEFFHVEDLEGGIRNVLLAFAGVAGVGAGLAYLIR
Sequence of Ion channel NompC (Q7T1G6 whole entry): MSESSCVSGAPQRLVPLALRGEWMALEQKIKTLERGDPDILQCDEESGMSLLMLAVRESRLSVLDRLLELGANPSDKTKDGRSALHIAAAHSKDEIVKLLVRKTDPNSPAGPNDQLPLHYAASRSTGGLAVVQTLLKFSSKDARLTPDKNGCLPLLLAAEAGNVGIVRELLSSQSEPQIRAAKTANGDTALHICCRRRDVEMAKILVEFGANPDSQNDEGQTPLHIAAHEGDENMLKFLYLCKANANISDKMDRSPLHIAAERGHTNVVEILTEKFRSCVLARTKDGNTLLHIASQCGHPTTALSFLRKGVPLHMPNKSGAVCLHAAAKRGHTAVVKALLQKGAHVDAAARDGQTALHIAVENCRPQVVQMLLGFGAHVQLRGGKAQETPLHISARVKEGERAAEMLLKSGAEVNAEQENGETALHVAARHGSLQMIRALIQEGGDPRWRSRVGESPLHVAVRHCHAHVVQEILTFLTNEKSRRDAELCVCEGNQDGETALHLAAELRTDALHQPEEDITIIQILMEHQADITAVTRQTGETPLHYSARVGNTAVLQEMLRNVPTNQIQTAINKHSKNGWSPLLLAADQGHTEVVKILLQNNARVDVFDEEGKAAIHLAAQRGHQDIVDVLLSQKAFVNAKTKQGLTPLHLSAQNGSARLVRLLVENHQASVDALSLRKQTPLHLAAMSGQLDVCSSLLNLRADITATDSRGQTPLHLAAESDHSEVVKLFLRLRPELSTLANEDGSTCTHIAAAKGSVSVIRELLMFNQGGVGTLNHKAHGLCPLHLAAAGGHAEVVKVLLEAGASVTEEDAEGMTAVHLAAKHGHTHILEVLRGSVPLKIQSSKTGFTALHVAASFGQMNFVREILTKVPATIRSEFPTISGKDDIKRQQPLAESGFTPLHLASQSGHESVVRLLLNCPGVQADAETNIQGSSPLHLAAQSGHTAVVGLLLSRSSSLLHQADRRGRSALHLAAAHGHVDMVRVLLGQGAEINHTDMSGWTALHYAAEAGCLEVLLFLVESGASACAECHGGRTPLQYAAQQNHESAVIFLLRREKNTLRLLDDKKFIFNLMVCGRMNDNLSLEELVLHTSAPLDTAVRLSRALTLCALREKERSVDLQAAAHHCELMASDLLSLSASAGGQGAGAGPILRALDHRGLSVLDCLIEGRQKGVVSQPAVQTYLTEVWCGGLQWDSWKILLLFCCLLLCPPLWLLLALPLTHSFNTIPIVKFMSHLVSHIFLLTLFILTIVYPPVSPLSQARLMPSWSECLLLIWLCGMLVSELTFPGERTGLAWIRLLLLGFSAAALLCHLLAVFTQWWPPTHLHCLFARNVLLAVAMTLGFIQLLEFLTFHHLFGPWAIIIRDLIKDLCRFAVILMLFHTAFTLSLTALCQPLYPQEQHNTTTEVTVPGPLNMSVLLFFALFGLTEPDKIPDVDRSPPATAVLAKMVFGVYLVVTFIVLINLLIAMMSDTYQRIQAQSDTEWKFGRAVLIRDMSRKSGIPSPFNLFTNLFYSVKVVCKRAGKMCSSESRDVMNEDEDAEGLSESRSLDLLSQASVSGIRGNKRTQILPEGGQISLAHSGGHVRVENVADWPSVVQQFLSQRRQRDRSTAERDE
Sequence of G-protein coupled receptor 55 (Q9Y2T6 whole entry): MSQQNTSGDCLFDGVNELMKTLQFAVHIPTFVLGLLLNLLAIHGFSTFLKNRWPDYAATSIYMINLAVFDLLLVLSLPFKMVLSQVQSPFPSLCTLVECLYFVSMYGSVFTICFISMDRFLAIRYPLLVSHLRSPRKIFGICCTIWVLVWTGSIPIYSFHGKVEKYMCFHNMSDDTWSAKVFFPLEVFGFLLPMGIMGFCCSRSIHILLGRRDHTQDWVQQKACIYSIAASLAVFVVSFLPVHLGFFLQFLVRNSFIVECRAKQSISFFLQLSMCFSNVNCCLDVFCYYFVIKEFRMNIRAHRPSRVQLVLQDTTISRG
Sequence of Large T antigen (P03070 whole entry): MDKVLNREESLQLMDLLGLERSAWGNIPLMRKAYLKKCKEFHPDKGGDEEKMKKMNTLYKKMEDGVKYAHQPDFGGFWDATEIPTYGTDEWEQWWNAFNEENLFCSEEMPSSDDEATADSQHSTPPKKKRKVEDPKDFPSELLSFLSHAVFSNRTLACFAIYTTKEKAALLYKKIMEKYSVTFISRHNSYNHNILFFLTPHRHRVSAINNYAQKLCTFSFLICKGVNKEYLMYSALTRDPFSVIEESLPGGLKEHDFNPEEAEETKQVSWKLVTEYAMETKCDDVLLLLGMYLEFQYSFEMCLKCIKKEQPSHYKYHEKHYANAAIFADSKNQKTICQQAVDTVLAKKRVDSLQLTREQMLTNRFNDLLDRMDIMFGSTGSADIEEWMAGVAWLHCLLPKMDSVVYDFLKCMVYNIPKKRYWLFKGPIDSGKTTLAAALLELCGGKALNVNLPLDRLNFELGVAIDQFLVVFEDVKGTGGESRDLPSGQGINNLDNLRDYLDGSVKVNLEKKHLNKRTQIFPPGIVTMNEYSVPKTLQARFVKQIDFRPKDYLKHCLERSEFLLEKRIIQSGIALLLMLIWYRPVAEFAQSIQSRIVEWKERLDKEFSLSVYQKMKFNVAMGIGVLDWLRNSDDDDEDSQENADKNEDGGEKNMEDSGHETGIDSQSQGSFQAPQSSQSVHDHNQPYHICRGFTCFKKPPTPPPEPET
Sequence of Eukaryotic translation initiation factor 4E (P63073 whole entry): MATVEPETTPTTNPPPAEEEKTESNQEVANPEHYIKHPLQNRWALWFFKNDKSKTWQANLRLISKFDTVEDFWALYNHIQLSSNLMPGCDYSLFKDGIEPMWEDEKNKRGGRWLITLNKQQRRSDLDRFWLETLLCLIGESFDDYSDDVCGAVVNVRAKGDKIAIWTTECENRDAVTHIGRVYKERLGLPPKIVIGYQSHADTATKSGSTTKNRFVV

## O=C1CC(Cc2ccccc2)C(=O)N1c1ccc(Cl)cn1 (centres undefined)
[1]
  EC50: > 10 µM (not active)

## CC1CCc2[nH]nc(C(=O)O)c2C1 (centres undefined)
Prothrombin
  IC50: > 50 µM (not active)

## O=c1c2cc(N3CCOCC3)ccc2[nH]c(=S)n1Cc1ccco1
Estrogen receptor beta [2]
  IC50: > 50 µM (not active)
Estrogen receptor beta [3]
  IC50: 6.02 µM (not active)

## O=C(NCc1ccco1)c1cc2nc(-c3ccc4c(c3)OCO4)cc(C(F)(F)F)n2n1
[4]
  IC50: 20.4 µM (active)
[5]
  EC50: > 32 µM (inactive)

## COc1ccc(C(=O)c2sc3nc(-c4ccccc4)ccc3c2N)cc1
[6]
  IC50: 25.4 µM (not active)
Insulin-degrading enzyme
  IC50: > 55.9 µM (not active)

## O=S(=O)(c1ccc2ccccc2c1)N1CCCCCC1
Mucolipin-3
  EC50: 1.71 µM (active)
Ion channel NompC
  EC50: > 29.9 µM (not active)

## CCCOc1ccc(S(=O)(=O)n2cc(F)c(=O)[nH]c2=O)cc1
[7]
  EC50: > 50 µM (active)

## O=C1c2ccccc2-c2onc3c(Oc4ccccc4)cc(O)c1c23
Estrogen receptor beta [3]
  IC50: 37 µM (not active)

## CC1=CC(C)(C)N(C(=O)CSc2nnc(-c3ccc(C)cc3)o2)c2ccc(C)cc21
Mucolipin-3
  EC50: 7.81 µM (active)
Ion channel NompC
  EC50: > 29.9 µM (not active)
INS1
  AC50: 14.8 µM (active)

## COc1ccc(N2C(=O)CSC2c2cccc(OC)c2OC)cc1 (centres undefined)
Prothrombin
  IC50: > 50 µM (not active)

## O=c1/c(=C\c2cc([N+](=O)[O-])cc([N+](=O)[O-])c2O)sc2nc3ccccc3n12
[6]
  IC50: > 55.7 µM (not active)
Large T antigen
  IC50: 52.8 µM (active)
Insulin-degrading enzyme
  IC50: > 55.9 µM (not active)
[8]
  IC50: 1.54 µM (active)
[9]
  IC50: 50 µM (inactive)

## Oc1c(Br)cc(Br)cc1CNc1ccccn1
[7]
  EC50: > 50 µM (active)

## O=C(c1ccc([N+](=O)[O-])cc1)n1nc(-c2ccccc2)nc1NCc1ccc(F)cc1
Prothrombin
  IC50: 0.464 µM (active)

## COc1ccc2[nH]c3c(NCc4ccco4)ncnc3c2c1
[6]
  IC50: 19.3 µM (not active)
Insulin-degrading enzyme
  IC50: 21.2 µM (not active)

## COC(=O)c1c(NC(=O)Cc2cccs2)sc2c1CCCC2
[10]
  EC50: 20.6 µM (active)
Streptokinase A
  EC50: 17.7 µM (active)
Estrogen receptor beta [2]
  IC50: 4.51 µM (active)
Estrogen receptor beta [3]
  IC50: 103 µM (not active)
[8]
  IC50: 3.35 µM (active)
Streptococcus
  EC50: > 150 µM (not active)

## COc1ccc2c(=O)c3c(=O)n(Cc4ccco4)c(-c4ccco4)nc3oc2c1
Estrogen receptor beta [2]
  IC50: > 50 µM (not active)
[11]
  IC50: 4.9 µM (active)

## COc1ccc(C(=O)C2CCN(CC(=O)Nc3cc(C)cc(C)c3)CC2)cc1
[7]
  EC50: > 50 µM (active)
